Values quoted from earlier work in US9725402B2, “Nitroso compounds as nitroxyl donors and methods of use thereof” (priority 2008, dated 2017).

Legend:
pheochromocytoma = conditions: subcutaneous xenograft, dose nontoxic to nude mice
[1] = tested on: cultured breast cancer cells
breast cancer cells = conditions: mouse xenograft model
[2] = tested on: myocardial ischemia/reperfusion injury; conditions: administered during ischemia and 5 minutes prior to reperfusion, anesthetized rabbits

Structure (SMILES)	pH at which compound is a nitroxyl donor (nitroxyl donor only at high pH)	species donated under physiological conditions (physiological conditions, oxidative pathway)	toxicity to cancer cells (cancer cells; pH 7.4)	cytotoxicity to cancer cells (cancer cells; weakly acidic solutions)	tumor growth (pheochromocytoma)	proliferation of cultured breast cancer cells [1]	tumor mass (breast cancer cells)	myocardial ischemia/reperfusion injury [2]
O=S(=O)(NO)c1ccccc1 [PA, N-hydroxybenzenesulfonamide]	> 9	nitric oxide donor						
[Na+].[Na+].[O-][N+]([O-])=NO [Angeli's salt, sodium α-oxyhyponitrite]			no toxicity	strong cytotoxicity	inhibit tumor growth	inhibits the proliferation	decreases tumor mass	increased myocardial ischemia/reperfusion injury
